Measured values from US4208398A, “Technetium-labeled complexes, production and use thereof” (priority 1975, dated 1980).

What was measured:
[1] = water/octanol partition coefficient Ln(aw/ao) of the technetium complex; type: physicochemical; details: for Partition Coefficient = Ln(aw/ao): 27000 µM
Protocol: This ratio of distribution is quite easily followed by determining the activity of the respective phases of a two-phase system, in which the complex is added as a water solution to octanol in equal parts. […] (wherein aw is the radioactivity distributed in the aqueous phase and ao is the radioactivity distributed in the organic phase, at a pH in the range between pH 4 and pH 9), after thorough agitation to admix the phases followed by standing to accomplish complete separation.
The blood is on the mildly alkaline side at pH=7.4, while the urine, etc., is about pH 5 to pH 8.

[2] = biological distribution of the 99m-Tc complex in mice as a function of time; type: in vivo, white female Swiss Webster mice; details: for Percentage of total 99m-Tc in mice, Carcass / Percentage of total 99m-Tc in mice, Gut / Percentage of total 99m-Tc in mice, Kidneys / Percentage of total 99m-Tc in mice, Liver / Percentage of total 99m-Tc in mice, Lungs / Percentage of total 99m-Tc in mice, Pancreas / Percentage of total 99m-Tc in mice, Spleen / Percentage of total 99m-Tc in mice, Stomach / Percentage of total 99m-Tc in mice, Spleen & Pancreas / Percentage of total 99m-Tc in mice, Urine: i.v. tail vein
Protocol: The mice were injected intravenously via the tail vein, sacrificed after appropriate time periods, then dissected. The isolated organs were assayed for radioactivity using a Packard series 410 A Auto Gamma Spectrometer.
Each data point represents an average value from three mice taken in three separate distribution studies.
The mice were tested and assayed for radioactivity as described in Example 1.

[3] = kidney imaging in dogs with a gamma radiation detecting camera; type: in vivo; details: one-half hour after injection
Protocol: Next, 9 ml. of saline were added to the glass vial (held under N2 atmosphere). The pH of the vial contents was raised to pH 7.4, using 1 molar NaOH. The solution was transferred to a pharmaceutical vial, capped and sealed. Using a needle inserted through the rubber seal septum, the vial was evacuated to 5 mm. Hg pressure and purged with nitrogen to 1 atmospheric pressure. The vial contents were ready for injection and kidney imaging.

[4] = in vivo
[5] = mouse kidney distribution of Tc-99m pertechnetate (comparison); type: in vivo; details: at any time during a 24 hour period
[6] = localization of technetium activity in a mouse after injection of the complex into the blood stream; type: in vivo; details: one hour after injection into the blood stream
Protocol: One hour after this complex was injected into the blood stream of a mouse, about 24 percent of technetium activity had localized in its kidneys.

99m-Tc-dimercaptosuccinic acid
Partition Coefficient = Ln(aw/ao) ([1]; pH 4): 6.0
Partition Coefficient = Ln(aw/ao) ([1]; pH 5): 6.8
Partition Coefficient = Ln(aw/ao) ([1]; pH 6): 7.6
Partition Coefficient = Ln(aw/ao) ([1]; pH 7): 8.5
Partition Coefficient = Ln(aw/ao) ([1]; pH 8): 8.2
Partition Coefficient = Ln(aw/ao) ([1]; pH 9): 8.1
Percentage of total 99m-Tc in mice, Carcass ([2]; 0 hr): 40.9 Percentage of total 99m-Tc
Percentage of total 99m-Tc in mice, Carcass ([2]; 0.5 hr): 30.4 Percentage of total 99m-Tc
Percentage of total 99m-Tc in mice, Carcass ([2]; 1.0 hr): 26.9 Percentage of total 99m-Tc
Percentage of total 99m-Tc in mice, Carcass ([2]; 2.0 hr): 20.4 Percentage of total 99m-Tc
Percentage of total 99m-Tc in mice, Carcass ([2]; 4.0 hr): 21.3 Percentage of total 99m-Tc
Percentage of total 99m-Tc in mice, Carcass ([2]; 24.0 hr): 8.0 Percentage of total 99m-Tc
Percentage of total 99m-Tc in mice, Gut ([2]; 0 hr): 10.1 Percentage of total 99m-Tc
Percentage of total 99m-Tc in mice, Gut ([2]; 0.5 hr): 6.1 Percentage of total 99m-Tc
Percentage of total 99m-Tc in mice, Gut ([2]; 1.0 hr): 7.0 Percentage of total 99m-Tc
Percentage of total 99m-Tc in mice, Gut ([2]; 2.0 hr): 4.3 Percentage of total 99m-Tc
Percentage of total 99m-Tc in mice, Gut ([2]; 4.0 hr): 3.0 Percentage of total 99m-Tc
Percentage of total 99m-Tc in mice, Gut ([2]; 24.0 hr): 1.7 Percentage of total 99m-Tc
Percentage of total 99m-Tc in mice, Kidneys ([2]; 0 hr): 9.4 Percentage of total 99m-Tc
Percentage of total 99m-Tc in mice, Kidneys ([2]; 0.5 hr): 29.3 Percentage of total 99m-Tc
Percentage of total 99m-Tc in mice, Kidneys ([2]; 1.0 hr): 39.5 Percentage of total 99m-Tc
Percentage of total 99m-Tc in mice, Kidneys ([2]; 2.0 hr): 45.6 Percentage of total 99m-Tc
Percentage of total 99m-Tc in mice, Kidneys ([2]; 4.0 hr): 54.8 Percentage of total 99m-Tc
Percentage of total 99m-Tc in mice, Kidneys ([2]; 24.0 hr): 75.5 Percentage of total 99m-Tc
Percentage of total 99m-Tc in mice, Liver ([2]; 0 hr): 28.6 Percentage of total 99m-Tc
Percentage of total 99m-Tc in mice, Liver ([2]; 0.5 hr): 12.8 Percentage of total 99m-Tc
Percentage of total 99m-Tc in mice, Liver ([2]; 1.0 hr): 9.4 Percentage of total 99m-Tc
Percentage of total 99m-Tc in mice, Liver ([2]; 2.0 hr): 6.8 Percentage of total 99m-Tc
Percentage of total 99m-Tc in mice, Liver ([2]; 4.0 hr): 3.8 Percentage of total 99m-Tc
Percentage of total 99m-Tc in mice, Liver ([2]; 24.0 hr): 2.7 Percentage of total 99m-Tc
Percentage of total 99m-Tc in mice, Lungs ([2]; 0 hr): 7.4 Percentage of total 99m-Tc
Percentage of total 99m-Tc in mice, Lungs ([2]; 0.5 hr): 2.3 Percentage of total 99m-Tc
Percentage of total 99m-Tc in mice, Lungs ([2]; 1.0 hr): 1.7 Percentage of total 99m-Tc
Percentage of total 99m-Tc in mice, Lungs ([2]; 2.0 hr): 0.8 Percentage of total 99m-Tc
Percentage of total 99m-Tc in mice, Lungs ([2]; 4.0 hr): 0.7 Percentage of total 99m-Tc
Percentage of total 99m-Tc in mice, Lungs ([2]; 24.0 hr): 0.0 Percentage of total 99m-Tc
Percentage of total 99m-Tc in mice, Pancreas ([2]; 0 hr): 1.4 Percentage of total 99m-Tc
Percentage of total 99m-Tc in mice, Pancreas ([2]; 0.5 hr): 0.7 Percentage of total 99m-Tc
Percentage of total 99m-Tc in mice, Pancreas ([2]; 1.0 hr): 0.4 Percentage of total 99m-Tc
Percentage of total 99m-Tc in mice, Pancreas ([2]; 2.0 hr): 0.3 Percentage of total 99m-Tc
Percentage of total 99m-Tc in mice, Pancreas ([2]; 4.0 hr): 0.2 Percentage of total 99m-Tc
Percentage of total 99m-Tc in mice, Pancreas ([2]; 24.0 hr): 0.2 Percentage of total 99m-Tc
Percentage of total 99m-Tc in mice, Spleen ([2]; 0 hr): 0.3 Percentage of total 99m-Tc
Percentage of total 99m-Tc in mice, Spleen ([2]; 0.5 hr): 0.4 Percentage of total 99m-Tc
Percentage of total 99m-Tc in mice, Spleen ([2]; 1.0 hr): 0.2 Percentage of total 99m-Tc
Percentage of total 99m-Tc in mice, Spleen ([2]; 2.0 hr): 0.3 Percentage of total 99m-Tc
Percentage of total 99m-Tc in mice, Spleen ([2]; 4.0 hr): 0.1 Percentage of total 99m-Tc
Percentage of total 99m-Tc in mice, Spleen ([2]; 24.0 hr): 0.1 Percentage of total 99m-Tc
Percentage of total 99m-Tc in mice, Stomach ([2]; 0 hr): 1.8 Percentage of total 99m-Tc
Percentage of total 99m-Tc in mice, Stomach ([2]; 0.5 hr): 1.1 Percentage of total 99m-Tc
Percentage of total 99m-Tc in mice, Stomach ([2]; 1.0 hr): 1.2 Percentage of total 99m-Tc
Percentage of total 99m-Tc in mice, Stomach ([2]; 2.0 hr): 0.5 Percentage of total 99m-Tc
Percentage of total 99m-Tc in mice, Stomach ([2]; 4.0 hr): 0.4 Percentage of total 99m-Tc
Percentage of total 99m-Tc in mice, Stomach ([2]; 24.0 hr): 0.4 Percentage of total 99m-Tc
accumulation of activity in the animal's kidneys ([2]; mice, immediately after injection to 24 hour): begins to accumulate in the animal's kidneys immediately after injection of the Tc-DMSA complex and continues to concentrate during a 24 hour period
kidney images [3]: Good kidney images

99m-Tc-thioglucose
Percentage of total 99m-Tc in mice, Carcass ([2]; 0 hr): 53.1 Percentage of total 99m-Tc
Percentage of total 99m-Tc in mice, Carcass ([2]; 0.5 hr): 1.5 Percentage of total 99m-Tc
Percentage of total 99m-Tc in mice, Carcass ([2]; 1.0 hr): 1.4 Percentage of total 99m-Tc
Percentage of total 99m-Tc in mice, Gut ([2]; 0 hr): 13.3 Percentage of total 99m-Tc
Percentage of total 99m-Tc in mice, Gut ([2]; 0.5 hr): 5.5 Percentage of total 99m-Tc
Percentage of total 99m-Tc in mice, Gut ([2]; 1.0 hr): 1.1 Percentage of total 99m-Tc
Percentage of total 99m-Tc in mice, Kidneys ([2]; 0 hr): 9.0 Percentage of total 99m-Tc
Percentage of total 99m-Tc in mice, Kidneys ([2]; 0.5 hr): 2.8 Percentage of total 99m-Tc
Percentage of total 99m-Tc in mice, Kidneys ([2]; 1.0 hr): 0.4 Percentage of total 99m-Tc
Percentage of total 99m-Tc in mice, Liver ([2]; 0 hr): 18.9 Percentage of total 99m-Tc
Percentage of total 99m-Tc in mice, Liver ([2]; 0.5 hr): 2.1 Percentage of total 99m-Tc
Percentage of total 99m-Tc in mice, Liver ([2]; 1.0 hr): 3.3 Percentage of total 99m-Tc
Percentage of total 99m-Tc in mice, Lungs ([2]; 0 hr): 2.9 Percentage of total 99m-Tc
Percentage of total 99m-Tc in mice, Lungs ([2]; 0.5 hr): 0.3 Percentage of total 99m-Tc
Percentage of total 99m-Tc in mice, Lungs ([2]; 1.0 hr): 0.08 Percentage of total 99m-Tc
Percentage of total 99m-Tc in mice, Spleen & Pancreas ([2]; 0 hr): 2.1 Percentage of total 99m-Tc
Percentage of total 99m-Tc in mice, Spleen & Pancreas ([2]; 0.5 hr): 0.1 Percentage of total 99m-Tc
Percentage of total 99m-Tc in mice, Spleen & Pancreas ([2]; 1 hr): 0.2 Percentage of total 99m-Tc
Percentage of total 99m-Tc in mice, Stomach ([2]; 0 hr): 0.8 Percentage of total 99m-Tc
Percentage of total 99m-Tc in mice, Stomach ([2]; 0.5 hr): 0.8 Percentage of total 99m-Tc
Percentage of total 99m-Tc in mice, Stomach ([2]; 1.0 hr): 0.06 Percentage of total 99m-Tc
Percentage of total 99m-Tc in mice, Urine ([2]; 0 hr): 0.0 Percentage of total 99m-Tc
Percentage of total 99m-Tc in mice, Urine ([2]; 0.5 hr): 89.9 Percentage of total 99m-Tc
Percentage of total 99m-Tc in mice, Urine ([2]; 1 hr): 93.5 Percentage of total 99m-Tc
elimination from the kidneys ([2]; mice, 0-1 hr): eliminated from the kidneys of the mice very rapidly
clearance from kidney tissue [4]: rapidly cleared from kidney tissue

[O]=[99Tc](=[O])(=[O])[O-] [Tc-99m pertechnetate]
maximum kidney concentration of Tc-99m pertechnetate [5]: ≤ 3%

Technetium-3-mercaptopropanoic Acid
Partition Coefficient - Ln(aw/ao) ([1]; pH 4): 2.4
Partition Coefficient - Ln(aw/ao) ([1]; pH 5): 2.7
Partition Coefficient - Ln(aw/ao) ([1]; pH 6): 3.1
Partition Coefficient - Ln(aw/ao) ([1]; pH 7): 3.6
Partition Coefficient - Ln(aw/ao) ([1]; pH 8): 4.1
Partition Coefficient - Ln(aw/ao) ([1]; pH 9): 4.7

Technetium-mercaptosuccinic Acid [^99m Tc-mercapto succinic acid]
clearance from kidney tissue [4]: rapidly cleared from kidney tissue

technetium-mercaptoacetic acid
technetium activity found in urine [6]: A large part of the remaining activity
technetium activity localized in kidneys [6]: about 24%
